According to PubChem BioAssay (NCI):
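All cell lines were grown in 96-well plates and treated with compound for 48 hours. The concentration for 50% growth inhibition is given as GI50. At the TGI there is no net growth.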

Columns and labels:
Assay in all cases: NCI tumour cell line growth inhibition, 48 h
[1] = test system: M19-MEL melanoma
[2] = test system: DMS 273 small cell lung
[3] = test system: DLD-1 colon
[4] = test system: SR leukemia
[5] = test system: MDA-N
[6] = test system: MDA-MB-231 breast
[7] = test system: DU-145 prostate
[8] = test system: 786-0 renal
[9] = test system: HS 578T breast
[10] = test system: SNB-19 CNS
[11] = test system: MDA-MB-435
[12] = test system: T-47D breast
[13] = test system: P388 leukemia

SMILES	TGI [1] [µM]	TGI [2] [µM]	TGI [3] [µM]	TGI [4] [µM]	TGI [5] [µM]	TGI [6] [µM]	TGI [7] [µM]	TGI [8] [µM]	TGI [9] [µM]	TGI [10] [µM]	TGI [11] [µM]	TGI [12] [µM]	TGI [13] [µM]	GI50 [6] [µM]	GI50 [7] [µM]	GI50 [9] [µM]	GI50 [10] [µM]	GI50 [11] [µM]	GI50 [12] [µM]	GI50 [4] [µM]
C[C@H](O)C(=O)SC[C@H](NC(=O)CC[C@@H](N)C(=O)O)C(=O)NCC(=O)O	> 100	> 100	> 100	> 100																
COc1cc(NCc2ccc3n2-c2ccccc2OC3)cc(OC)c1OC				35.6	72.4	34.1	> 100	> 100	> 100	> 100	33.8	> 100								
CC(O)=NC(Cc1ccc2ccccc2c1)C(O)=NC(Cc1ccc(Cl)cc1)C(O)=NC(Cc1c[nH]c2ccccc12)C(O)=NC(CO)C(O)=NC(Cc1ccc(O)cc1)C(O)=NC(CCCN=C(N)N)C(O)=NC(CC(C)C)C(O)=NC(CCCN=C(N)N)C(=O)N1CCCC1C(O)=NC(C)C(=N)O (stereo unspecified)				> 100	> 100	> 100	> 100	> 100	> 100	> 100	> 100									
COc1ccc2c(c1)CC[C@@H]1[C@@H]2CC[C@]2(C)[C@@H](O)/C(=C/c3ccncc3)C[C@@H]12					33.2	32.6	41	31.7	32	51.8	27.3	28.9								
CCOc1ccc2c(c1)NC(=O)C(C1OC(c3ccccc3)=CC1=O)S2 (stereo unspecified)				46.1	77.4	60.5	> 100	80.5	86	> 100	44.4	36.3								
CCOC(=O)[C@H]1C[C@]23CN(C(=O)OC(C)(C)C)CC[C@H]2CCC2(SCCCS2)[C@@H]3N1C				76.5	> 100		> 100	> 100	> 100	> 100	> 100	> 100								
Cc1cc(-c2nc3cc(F)ccc3s2)ccc1NC(=O)C(C)N (stereo unspecified)				5.24	8.13	7.7	8.17	7.2	10	9.63	10.5	6.35								
C[n+]1c(-c2ccc(/C=N\NC(=O)c3ccc(C(=O)N/N=C/c4ccc(-c5cn6ccsc6[n+]5C)cc4)cc3)cc2)cn2ccsc21				85.6	78.3	42.1	35	36.8	54.7	51.9	37.7									
COc1c2ccoc2c(S(=O)(=O)Nc2ccc(Cl)cc2)c2oc(C)cc(=O)c12	> 100	> 100	> 100							> 100			> 100							
CCOc1cc(NC(C)=O)ccc1C(=O)NN1C(=O)CSC1c1ccc(O)c(OC)c1 (stereo unspecified)				> 100	> 100	> 100	> 100	> 100	> 100	> 100	> 100	> 100								
O=C1N[C@@H]2c3c(Br)sc(Br)c3C(=O)[C@@H]2N1				4.72	5.04	10.9	17.2	6.4	37	26.2	4.83	21.5								
CN(C)CCC(C(=O)C(C)(C)C)c1ccccn1 (stereo unspecified)				> 100	> 100	> 100	> 100	> 100	> 100	> 100	> 100	> 100								
O=C(Nc1ccc(F)cc1)c1cc2ccc(O)cc2oc1=Nc1ccccc1F				> 100	> 100		> 100	> 100	> 100		> 100	> 100								
C=C1C(=O)OC2/C=C(\C)CC(O)/C=C(/CO)CC(OC(=O)/C(C)=C/C)C12 (stereo unspecified)	92	82.5	139							353			113							
CCCCOc1ccc(S(=O)(=O)/N=C(\NN)Nc2ccc(Cl)cc2)cc1				52.6	> 100	46.3	31.1	31		> 100		46.2								
C[C@]12CC[C@H](O)CC1=CC[C@@H]1[C@@H]2CC[C@]2(C)C(=O)CC[C@@H]12				> 100	> 100		> 100	> 100	97.9	> 100	> 100	> 100								
NC1=NS(=O)(=O)Nc2nc(-c3cccs3)[nH]c21	> 100	> 100	> 100	> 100				> 100		> 100										
Cc1onc(-c2c(F)cccc2Cl)c1C(=O)N[C@@H]1C(=O)N2[C@@H]1SC(C)(C)[C@@H]2C(=O)O				> 100	> 100	> 100	> 100	> 100	> 100	> 100	> 100	> 100								
FC(F)(F)C1=NC(=NNc2nnc(-c3ccccc3)c(-c3ccccc3)n2)N=C(C(F)(F)F)C1	> 68.4	> 100	> 100							> 100			> 47.5							
COc1ccc(-n2cc(-c3ccc(OC)c(OC)c3)nc2SCc2ccccc2)cc1Cl				51.1		> 100	> 100		> 100	> 100	> 100	> 100		26.9	27.6	25.3	32.5	27.8	9.45	16
O=c1cc(-c2nc3ccccc3[nH]2)[nH]c2nc(-c3nc4ccccc4[nH]3)cc(-c3ccc(Cl)cc3)c12				46.6	59.6	35.7	> 100		> 100	> 100	35.3	83.5								
CO[C@]12C[C@H](CNC(=O)c3cc(Br)c(Br)[nH]3)O[C@H]1NC(=O)N2				> 100		> 100	> 100	> 100	> 100	> 100	> 100	> 100								
Cc1ccc(S(=O)(=O)NCCSS(=O)(=O)c2ccc(C)cc2)cc1				39	56.8	> 100	> 100		> 100	> 100	52	53.9								
OC1(c2ccc3ccccc3c2)c2ccc3ccccc3c2C2=NCCN21 (stereo unspecified)				> 100	> 100	> 100	> 100	69.3	53	> 100	> 100	> 100								
CC[N+](CC)(CC)/C(=N/S(=O)(=O)c1cc(C)c(Cl)cc1S)[N-]S(=O)(=O)c1ccc(Cl)cc1					> 100	> 100	> 100	> 100	> 100		> 100	> 100								
CCCC(=O)OCC(O)CO (stereo unspecified)	> 5000	> 5000	> 5000	> 5000				> 5000												
